pKi: −log10 of the molar value.
What was measured:
[1] = biological target: 5-hydroxytryptamine receptor 4 (Homo sapiens, UniProt Q13639)
[2] = biological target: 5-hydroxytryptamine receptor 4 (Cavia porcellus, UniProt O70528)
5-hydroxytryptamine receptor 4 (Cavia porcellus, UniProt O70528), sequence (O70528 whole entry): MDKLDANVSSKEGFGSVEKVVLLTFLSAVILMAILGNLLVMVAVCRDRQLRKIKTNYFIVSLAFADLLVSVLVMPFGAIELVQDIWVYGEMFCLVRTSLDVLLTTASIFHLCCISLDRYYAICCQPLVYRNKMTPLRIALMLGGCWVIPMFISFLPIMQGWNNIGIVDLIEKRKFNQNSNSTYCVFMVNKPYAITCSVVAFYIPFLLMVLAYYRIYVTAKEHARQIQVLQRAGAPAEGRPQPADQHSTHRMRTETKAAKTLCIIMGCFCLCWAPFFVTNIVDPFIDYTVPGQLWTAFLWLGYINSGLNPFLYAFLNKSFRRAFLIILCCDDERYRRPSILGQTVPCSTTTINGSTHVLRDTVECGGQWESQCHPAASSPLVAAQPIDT

5-hydroxytryptamine receptor 4 (Homo sapiens, UniProt Q13639), sequence (Q13639 whole entry): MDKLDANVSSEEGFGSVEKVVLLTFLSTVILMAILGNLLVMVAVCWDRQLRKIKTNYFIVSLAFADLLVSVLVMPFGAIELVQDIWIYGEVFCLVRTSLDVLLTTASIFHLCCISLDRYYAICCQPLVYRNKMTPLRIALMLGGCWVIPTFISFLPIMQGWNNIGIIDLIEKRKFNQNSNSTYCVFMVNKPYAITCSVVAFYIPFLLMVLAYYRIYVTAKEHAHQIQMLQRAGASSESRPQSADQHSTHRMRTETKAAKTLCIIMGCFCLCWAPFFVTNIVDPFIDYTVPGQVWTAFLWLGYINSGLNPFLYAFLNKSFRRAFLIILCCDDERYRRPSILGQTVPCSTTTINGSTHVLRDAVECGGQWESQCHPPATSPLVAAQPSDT

Compound | pKi [1] | pKi [2]
COc1ccc2[nH]cc(CCN)c2c1 [tryptamine, 5-Methoxy] | 6.00 | 6.60
COc1[nH]c2ccc(F)cc2c1C(=O)OCC1CCN(CCNS(C)(=O)=O)CC1 [GR-125487] | 9.82 | 9.72
CN1C2CCC1CC(OC(=O)c1c[nH]c3ccccc13)C2 (centres undefined) |  | 6.70
Cn1cc(C(=O)OCC2CCN(CCNS(C)(=O)=O)CC2)c2ccccc21 [GR 113808] | 9.60 | 9.41
CCCCN1CCC(COC(=O)c2cc(Cl)c(N)c3c2OCCO3)CC1 [CAS_121881] | 10.00 | 10.15

Source: BindingDB's records for doi:10.1046/j.1471-4159.1997.69051810.x (Janssen Research Foundation, 1997)
